In patent publication US9290691B2, “Organic el material-containing solution, method for forming organic el thin film, organic el device comprising organic el thin film, and method for manufacturing organic el display panel” (IDEMITSU KOSAN CO., LTD., priority 2007, dated 2016):

Columns and labels:
[1] = Solubility Evaluation 1: anthracene compounds in various solvents, visual check; assay type: physicochemical; set-up: key to Solubility in Cyclohexanone / Solubility in Toluene / Solubility in Xylene / Solubility in Tetralin / Solubility in Dodecylbenzene / Solubility in Anisole / Solubility in Dioxane / Solubility in Butyl Acetate / Solubility in Methylethylketone / Solubility in N-methylpyrolidone: A: it was confirmed that the compounds were dissolved in the dropped solvents; C: the compounds were not completely dissolved and undissolved residues remained; conditions: for Solubility in Anisole / Solubility in Butyl Acetate / Solubility in Cyclohexanone / Solubility in Dioxane / Solubility in Dodecylbenzene / Solubility in Methylethylketone / Solubility in N-methylpyrolidone / Solubility in Tetralin / Solubility in Toluene / Solubility in Xylene: 30 mg compound, 1 g solvent, visual check
Protocol: (§1) 30 mg of each of anthracene compounds 1 to 14 represented by the following formulae was put into a sample bottle, and 1 g of each of various solvents was dropped into the bottle with agitation. By visual check, a case where it was confirmed that the compounds were dissolved in the dropped solvents is marked as A and a case where the compounds were not completely dissolved and undissolved residues remained is marked as C.

[2] = Solubility Evaluation 2: naphthacene compounds in various solvents, visual check; assay type: physicochemical; set-up: key: A: it was confirmed that the compounds were dissolved in the dropped solvents; C: the compounds were not completely dissolved and undissolved residues remained; conditions: 30 mg compound, 1 g solvent
Protocol: as §1
Next, naphthacene compounds 15 and 16 were used in place of the anthracene compounds, and the solubility was evaluated in the same manner as the above. Same as in Solubility Evaluation 1, by visual check, a case where it was confirmed that the compounds were dissolved in the dropped solvents is marked as A and a case where the compounds were not completely dissolved and undissolved residues remained is marked as C. Moreover, a case where precipitation was observed after several hours of dissolution is marked as B. Result of solubility evaluation will be shown in Table 3 below.

| Compound | Solubility in Anisole [1] | Solubility in Butyl Acetate [1] | Solubility in Cyclohexanone [1] | Solubility in Dioxane [1] | Solubility in Dodecylbenzene [1] | Solubility in Methylethylketone [1] | Solubility in N-methylpyrolidone [1] | Solubility in Tetralin [1] | Solubility in Toluene [1] | Solubility in Xylene [1] | Solubility in Cycloheptanone [2] | Solubility in Cyclohexanone [2] | Solubility in N-methylpyrolidone [2] | Solubility in Toluene [2] | Solubility in Xylene [2] | dissolution in cyclohexanone (in words) ([1]; cyclohexanone) | dissolution in toluene (in words) ([1]; toluene) |
| --- | --- | --- | --- | --- | --- | --- | --- | --- | --- | --- | --- | --- | --- | --- | --- | --- | --- |
| c1ccc(-c2ccc3ccc(-c4c5ccccc5c(-c5cccc(-c6ccc7ccccc7c6)c5)c5ccccc45)cc3c2)cc1 [Compound 5] | C | C | A | C | C | C | A | C | C | C | – | – | – | – | – | – | – |
| c1ccc(-c2c3ccccc3c(-c3cccc(-c4cccc(-c5c6ccccc6c(-c6ccccc6)c6ccccc56)c4)c3)c3ccccc23)cc1 [Compound 12] | C | C | C | C | C | C | C | C | C | C | – | – | – | – | – | – | – |
| c1cc(-c2ccc3ccccc3c2)cc(-c2c3ccccc3c(-c3cccc4ccccc34)c3ccccc23)c1 [Compound 6] | C | C | A | C | C | C | A | C | C | C | – | – | – | – | – | – | – |
| c1ccc(-c2ccc3cc(-c4cccc(-c5c6ccccc6c(-c6ccc(-c7cccc8ccccc78)cc6)c6ccccc56)c4)ccc3c2)cc1 [Compound 3] | C | C | A | A | C | C | A | C | A | A | – | – | – | – | – | – | – |
| c1ccc(-c2cc(-c3ccc4ccccc4c3)cc(-c3c4ccccc4c(-c4ccc5ccccc5c4)c4ccccc34)c2)cc1 [Compound 2] | C | C | A | A | C | C | A | C | A | A | – | – | – | – | – | – | – |
| c1ccc(-c2cc(-c3ccccc3)c(-c3c4ccccc4c(-c4ccccc4)c4cc5ccccc5cc34)c(-c3ccccc3)c2)cc1 [Compound 16] | – | – | – | – | – | – | – | – | – | – | A | A | A | C | C | – | – |
| c1ccc(-c2ccc3cc(-c4cccc(-c5c6ccccc6c(-c6ccc7ccccc7c6)c6ccccc56)c4)ccc3c2)cc1 [Compound 8] | C | C | A | C | C | C | A | C | C | C | – | – | – | – | – | – | – |
| c1cc(-c2ccc3ccccc3c2)cc(-c2c3ccccc3c(-c3ccc4ccccc4c3)c3ccccc23)c1 [Compound 10] | C | C | A | C | C | C | A | C | A | A | – | – | – | – | – | – | – |
| c1ccc2cc(-c3ccc(-c4ccc(-c5c6ccccc6c(-c6ccc7ccccc7c6)c6ccccc56)cc4)c4ccccc34)ccc2c1 [Compound 9] | C | C | A | C | C | C | A | C | C | C | – | – | – | – | – | – | – |
| c1ccc(-c2ccc(-c3ccccc3-c3c4ccccc4c(-c4c5ccccc5c(-c5ccccc5-c5ccc(-c6ccccc6)cc5)c5ccccc45)c4ccccc34)cc2)cc1 [Compound 14] | C | C | A | A | C | C | A | C | A | C | – | – | – | – | – | – | – |
| c1ccc2cc(-c3c4ccccc4c(-c4ccc(-c5cccc6ccccc56)cc4)c4ccccc34)ccc2c1 [Compound 1] | C | C | A | A | C | C | A | C | A | A | – | – | – | – | – | – | – |
| c1ccc2cc(-c3ccc(-c4c5ccccc5c(-c5ccc(-c6cccc7ccccc67)cc5)c5ccccc45)cc3)ccc2c1 [Compound 7] | C | C | A | A | C | C | A | C | A | A | – | – | – | – | – | – | – |
| c1ccc2cc(-c3c4ccccc4c(-c4ccc5ccccc5c4)c4ccccc34)ccc2c1 [Compound 11] | C | C | C | C | C | C | C | C | C | C | – | – | – | – | – | – | – |
| c1cc(-c2ccc3ccccc3c2)cc(-c2c3ccccc3c(-c3ccc4cc(-c5ccc6ccccc6c5)ccc4c3)c3ccccc23)c1 [Compound 4] | C | C | A | C | C | C | A | C | C | C | – | – | – | – | – | dissolved | not dissolved |
| c1ccc(-c2ccc(-c3c4ccccc4c(-c4ccc(-c5ccccc5)cc4)c4ccccc34)cc2)cc1 [Compound 13] | C | C | C | C | C | C | C | C | C | C | – | – | – | – | – | – | – |
